This passage reports IC50 results from patent publication US10696674B2, “Spirolactams as inhibitors of ROCK” (BRISTOL-MYERS SQUIBB COMPANY, priority 2016, dated 2020).

Structures are written as SMILES. Where only a bound is given, the exact number is not on record here.

Chain of ROCK2 (O75116 whole entry, species assumed): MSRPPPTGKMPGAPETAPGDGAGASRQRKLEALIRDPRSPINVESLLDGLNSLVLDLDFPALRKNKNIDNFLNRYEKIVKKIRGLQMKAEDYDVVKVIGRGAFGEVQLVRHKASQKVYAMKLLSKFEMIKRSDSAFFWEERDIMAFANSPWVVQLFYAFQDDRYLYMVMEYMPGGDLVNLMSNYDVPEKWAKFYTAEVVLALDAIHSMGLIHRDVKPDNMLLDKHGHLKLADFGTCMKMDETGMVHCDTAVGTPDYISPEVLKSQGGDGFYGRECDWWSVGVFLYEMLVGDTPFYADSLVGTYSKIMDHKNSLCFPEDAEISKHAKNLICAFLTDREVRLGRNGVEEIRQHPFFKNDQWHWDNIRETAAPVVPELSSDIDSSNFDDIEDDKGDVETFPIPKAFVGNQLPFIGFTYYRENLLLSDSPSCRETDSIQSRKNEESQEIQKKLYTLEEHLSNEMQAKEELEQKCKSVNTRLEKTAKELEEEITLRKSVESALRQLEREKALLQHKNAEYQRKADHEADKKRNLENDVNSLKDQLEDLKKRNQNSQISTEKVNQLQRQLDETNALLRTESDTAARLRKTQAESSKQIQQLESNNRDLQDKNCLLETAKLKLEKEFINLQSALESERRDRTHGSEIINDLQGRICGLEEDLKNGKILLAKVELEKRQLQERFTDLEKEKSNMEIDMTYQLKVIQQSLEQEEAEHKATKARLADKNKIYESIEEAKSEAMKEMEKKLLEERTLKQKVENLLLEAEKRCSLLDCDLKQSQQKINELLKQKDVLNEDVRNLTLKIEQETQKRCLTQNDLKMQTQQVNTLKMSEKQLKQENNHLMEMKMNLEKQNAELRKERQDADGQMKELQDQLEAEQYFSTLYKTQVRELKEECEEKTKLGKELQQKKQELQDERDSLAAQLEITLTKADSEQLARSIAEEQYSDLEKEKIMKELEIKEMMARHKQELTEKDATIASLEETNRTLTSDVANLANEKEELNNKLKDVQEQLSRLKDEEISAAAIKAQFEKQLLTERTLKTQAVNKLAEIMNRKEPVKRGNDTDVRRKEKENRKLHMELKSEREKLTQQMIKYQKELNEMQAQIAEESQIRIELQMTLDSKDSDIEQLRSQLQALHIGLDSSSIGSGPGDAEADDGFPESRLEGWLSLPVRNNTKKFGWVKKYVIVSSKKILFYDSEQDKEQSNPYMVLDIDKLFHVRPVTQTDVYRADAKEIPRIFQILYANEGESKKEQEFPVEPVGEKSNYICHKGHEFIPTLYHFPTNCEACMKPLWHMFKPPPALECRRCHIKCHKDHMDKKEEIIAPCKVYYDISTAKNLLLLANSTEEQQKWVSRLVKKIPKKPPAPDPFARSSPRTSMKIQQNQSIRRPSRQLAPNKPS

The target in the test is ROCK2 (Homo sapiens, UniProt O75116). Nature of the test: ROCK2 assay (Caliper LABCHIP peptide phosphorylation). It counts as biochemical. The note with it: 5 μM ATP, 1.5 μM peptide substrate. The procedure:
The effectiveness of compounds of the present invention as ROCK inhibitors can be determined in a 30 μL assay containing 20 mM HEPES, pH 7.5, 20 mM MgCl2, 0.015% Brij-35, 4 mM DTT, 5 μM ATP and 1.5 μM peptide substrate (FITC-AHA-AKRRRLSSLRA-OH) (SEQ ID NO.1). Compounds were dissolved in DMSO so that the final concentration of DMSO was <2%, and the reaction was initiated with Rho kinase variants. After incubation, the reaction was terminated by the addition of EDTA and the phosphorylated and non-phosphorylated peptides separated using a LABCHIP® 3000 Reader (Caliper Life Sciences). […] Compounds were tested in dose-response format, and the inhibition of kinase activity was calculated at each concentration of compound. The inhibition data were fit using a curve-fitting program to determine the IC50; i.e., the concentration of compound required to inhibit 50% of kinase activity.
Representative Examples were tested in the ROCK2 assay described above and found having ROCK2 inhibitory activity. The ranges of the ROCK2 IC50 values are as follows: ROCK2 IC50: ++++ (<3 nM) +++ (3-30 nM) ++ (30-300 nM) + (300-2000 nM)
The term IC50 denotes the concentration at which inhibition is half-maximal. For the compound `COc1ccc2c(c1)CC1(CCN(c3ccc(-c4cn[nH]c4)c(OC)n3)C1=O)C2` (single isomer, unassigned) [Example 19, 5-Methoxy-1′-(6-methoxy-5-(1H-pyrazol-4-yl)pyridin-2-yl)-1,3-dihydrospiro[indene-2,3′-pyrrolidin]-2′-one], the half-maximal inhibitory concentration (IC50) lay in the range of 300 to 2000 nM.

Regarding `COc1ccc2c(c1)CC1(CCN(c3ccc(-c4cn[nH]c4)c(OC)n3)C1=O)C2` (single isomer, unassigned) [Example 20, 5-Methoxy-1′-(6-methoxy-5-(1H-pyrazol-4-yl)pyridin-2-yl)-1,3-dihydrospiro[indene-2,3′-pyrrolidin]-2′-one], the IC50 is less than 3 nM.

Regarding `COc1ccc2c(c1)CC1(CCN(c3ccc(-c4cn[nH]c4)cc3)C1=O)C2` (single isomer, unassigned) [Example 22, 1′-(4-(1H-Pyrazol-4-yl)phenyl)-5-methoxy-1,3-dihydrospiro[indene-2,3′-pyrrolidin]-2′-one], the IC50 is less than 3 nM.

For the compound `COc1ccc2c(c1)CC1(CCN(c3ccc(-c4cn[nH]c4)cc3)C1=O)O2` (single isomer, unassigned) [Example 25, 1′-(4-(1H-Pyrazol-4-yl)phenyl)-5-methoxy-3H-spiro[benzofuran-2,3′-pyrrolidin]-2′-one], the concentration for half-maximal inhibition (IC50) lay within 30 to 300 nM.

`COc1ccc2c(c1)CC1(CCN(c3ccc(-c4cn[nH]c4)cc3)C1=O)O2` (single isomer, unassigned) [Example 26, 1′-(4-(1H-Pyrazol-4-yl)phenyl)-5-methoxy-3H-spiro[benzofuran-2,3′-pyrrolidin]-2′-one]: the IC50 was less than 3 nM.

Compound `O=C1N(c2ccc(-c3cn[nH]c3)cc2)CCC12Cc1ccccc1O2` (single isomer, unassigned) [Example 30, 1′-(4-(1H-Pyrazol-4-yl)phenyl)-3H-spiro[benzofuran-2,3′-pyrrolidin]-2′-one] showed a half-maximal inhibitory concentration (IC50) of 30 to 300 nM.

In the case of `O=C1N(c2ccc(-c3cn[nH]c3)cc2)CCC12Cc1ccccc1O2` (single isomer, unassigned) [Example 31, 1′-(4-(1H-Pyrazol-4-yl)phenyl)-3H-spiro[benzofuran-2,3′-pyrrolidin]-2′-one], the IC50 was less than 3 nM.

`COc1cc(N2CCC3(Cc4ccccc4N3)C2=O)ccc1-c1cn[nH]c1` (single isomer, unassigned) [Example 33, 1′-(3-Methoxy-4-(1H-pyrazol-4-yl)phenyl)spiro[indoline-2,3′-pyrrolidin]-2′-one] came in with a 50% inhibitory concentration (IC50) of 30 to 300 nM.

Take `COc1cc(N2CCC3(Cc4ccccc4N3)C2=O)ccc1-c1cn[nH]c1` (single isomer, unassigned) [Example 34, 1′-(3-methoxy-4-(1H-pyrazol-4-yl)phenyl)spiro[indoline-2,3′-pyrrolidin]-2′-one]: the IC50 is less than 3 nM.

The compound `COc1cc(F)c2c(c1)NC1(CCN(c3ccc(-c4cn[nH]c4)cc3)C1=O)C2` (single isomer, unassigned) [Example 39, 1′-(4-(1H-Pyrazol-4-yl)phenyl)-4-fluoro-6-methoxyspiro[indoline-2,3′-pyrrolidin]-2′-one] came in with an IC50 of 300 to 2000 nM.

In turn, `COc1cc(F)c2c(c1)NC1(CCN(c3ccc(-c4cn[nH]c4)cc3)C1=O)C2` (single isomer, unassigned) [Example 40, 1′-(4-(1H-Pyrazol-4-yl)phenyl)-4-fluoro-6-methoxyspiro[indoline-2,3′-pyrrolidin]-2′-one] returned a half-inhibitory concentration (IC50) of less than 3 nM.

Regarding `O=C1N(c2ccc(-c3cn[nH]c3)cc2)CCC12Cc1ccc(OCC3CC3)cc1N2` (single isomer, unassigned) [Example 42, 1′-(4-(1H-Pyrazol-4-yl)phenyl)-6-(cyclopropylmethoxy)spiro[indoline-2,3′-pyrrolidin]-2′-one], the 50% inhibitory concentration (IC50) is less than 3 nM.

Regarding `O=C1N(c2ccc(-c3cn[nH]c3)cc2)CCC12Cc1ccc(OCC3CC3)cc1N2` (single isomer, unassigned) [Example 43, 1′-(4-(1H-Pyrazol-4-yl)phenyl)-6-(cyclopropylmethoxy)spiro[indoline-2,3′-pyrrolidin]-2′-one], the IC50 was in the range of 30 to 300 nM.

In the case of `COc1ccc2c(c1)NC1(CCN(c3ccc(-c4cn[nH]c4)cc3)C1=O)C2` (centres unmarked) [Example 4, 1′-(4-(1H-Pyrazol-4-yl)phenyl)-6-methoxyspiro[indoline-2,3′-pyrrolidin]-2′-one], the 50% inhibitory concentration (IC50) was less than 3 nM.

In turn, `COc1nc(N2CCC3(Cc4ccccc4N3)C2=O)ccc1-c1cn[nH]c1` (centres unmarked) [Example 10, 1′-(6-methoxy-5-(1H-pyrazol-4-yl)pyridin-2-yl)spiro[indoline-2,3′-pyrrolidin]-2′-one] had an IC50 of less than 3 nM.

`O=C1N(c2ccc(-c3cn[nH]c3)cc2)CCC12Cc1ccccc1C2` [Example 11, 1′-(4-(1H-Pyrazol-4-yl)phenyl)-1,3-dihydrospiro[indene-2,3′-pyrrolidin]-2′-one] gave an IC50 of 3 to 30 nM.

Regarding `COc1ccc2c(c1)CC1(CCN(c3ccc(-c4cn[nH]c4)cc3)C1=O)N2` (centres unmarked) [Example 12, 1′-(4-(1H-Pyrazol-4-yl)phenyl)-5-methoxyspiro[indoline-2,3′-pyrrolidin]-2′-one], the IC50 is 30 to 300 nM.

For `O=C1N(c2ccc(-c3ccc4[nH]ncc4c3)cc2)CCC12Cc1ccccc1N2` (centres unmarked) [Example 13, 1′-(4-(1H-Indazol-5-yl)phenyl)spiro[indoline-2,3′-pyrrolidin]-2′-one], the 50% inhibitory concentration (IC50) fell in the range of 3 to 30 nM.

Compound `COc1ccc2c(c1)N(C)C1(CCN(c3ccc(-c4cn[nH]c4)cc3)C1=O)C2` (centres unmarked) [Example 14, 1′-(4-(1H-Pyrazol-4-yl)phenyl)-6-methoxy-1-methylspiro[indoline-2,3′-pyrrolidin]-2′-one] registered an IC50 of 30 to 300 nM.

Compound `COc1nc(N2CCC3(Cc4ccccc4C3)C2=O)ccc1-c1cn[nH]c1` [Example 23, 1′-(6-Methoxy-5-(1H-pyrazol-4-yl)pyridin-2-yl)-1,3-dihydrospiro[indene-2,3′-pyrrolidin]-2′-one] came in with an IC50 of less than 3 nM.

`COc1ccc2c(c1)CC1(CCN(c3ccc(-c4cn[nH]c4)cc3)C1=O)O2` (centres unmarked) [Example 24, 1′-(4-(1H-Pyrazol-4-yl)phenyl)-5-methoxy-3H-spiro[benzofuran-2,3′-pyrrolidin]-2′-one] returned a 50% inhibitory concentration (IC50) of less than 3 nM.

`Cc1cccc2c1CC1(CCN(c3ccc(-c4cn[nH]c4)cc3)C1=O)N2` (centres unmarked) [Example 27, 1′-(4-(1H-Pyrazol-4-yl)phenyl)-4-methylspiro[indoline-2,3′-pyrrolidin]-2′-one] yielded a concentration for half-maximal inhibition (IC50) of 3 to 30 nM.

With `O=C1N(c2ccc(-c3cn[nH]c3)cc2)CCC12Cc1ncccc1N2` (centres unmarked) [Example 28, 1-(4-(1H-Pyrazol-4-yl)phenyl)-1′,3′-dihydrospiro[pyrrolidine-3,2′-pyrrolo[3,2-b]pyridin]-2-one], the half-maximal inhibitory concentration (IC50) fell in the range of 30 to 300 nM.

For `COc1cc(N2CCC3(Cc4ccccc4C3)C2=O)ccc1-c1cn[nH]c1` [Example 35, 1′-(3-Methoxy-4-(1H-pyrazol-4-yl)phenyl)-1,3-dihydrospiro[indene-2,3′-pyrrolidin]-2′-one], the half-inhibitory concentration (IC50) lay in the range of 3 to 30 nM.

In the case of `CC(C)(O)COc1ccc2c(c1)NC1(CCN(c3ccc(-c4cn[nH]c4)cc3)C1=O)C2` (centres unmarked) [Example 36], the IC50 was 30 to 300 nM.

`O=C1N(c2ccc(-c3cn[nH]c3)cc2)CCC12Cc1ccc(O)cc1N2` (centres unmarked) [Example 37]: the IC50 is less than 3 nM.

`O=C1N(c2ccc(-c3cn[nH]c3)cn2)CCC12Cc1ccccc1N2` (centres unmarked) [Example 41, 1′-(5-(1H-Pyrazol-4-yl)pyridin-2-yl)spiro[indoline-2,3′-pyrrolidin]-2′-one] showed a half-inhibitory concentration (IC50) of 3 to 30 nM.

In turn, `O=C1N(c2cnc(-c3cn[nH]c3)cn2)CCC12Cc1ccccc1N2` (centres unmarked) [Example 44, 1′-(5-(1H-Pyrazol-4-yl)pyrazin-2-yl)spiro[indoline-2,3′-pyrrolidin]-2′-one] came in with a 50% inhibitory concentration (IC50) of 3 to 30 nM.

Take `O=C1N(c2ccc(-c3ccncc3)cc2)CCC12Cc1ccccc1N2` (centres unmarked) [Example 45, 1′-(4-(Pyridin-4-yl)phenyl)spiro[indoline-2,3′-pyrrolidin]-2′-one]: the IC50 lay within 3 to 30 nM.

`O=C1N(c2ccc(-c3ccncc3)cc2)CCC12Cc1ccccc1O2` (centres unmarked) [Example 46, 1′-(4-(Pyridin-4-yl)phenyl)-3H-spiro[benzofuran-2,3′-pyrrolidin]-2′-one] displayed a half-inhibitory concentration (IC50) of 3 to 30 nM.

For the compound `O=C1N(c2ccc(-c3cn[nH]c3)cc2)CCC12CCc1ccccc1N2` (centres unmarked) [Example 47, 1-(4-(1H-pyrazol-4-yl)phenyl)-3′,4′-dihydro-1 ^1H-spiro[pyrrolidine-3,2′-quinolin]-2-one], the IC50 is less than 3 nM.

`O=C1N(c2ccc(-c3cn[nH]c3)cc2)CCC12Cc1ccccc1CN2` (centres unmarked) [Example 48, 1′-(4-(1H-pyrazol-4-yl)phenyl)-1,4-dihydro-2H-spiro[isoquinoline-3,3′-pyrrolidin]-2′-one] came in with an IC50 of 30 to 300 nM.

Regarding `O=C1N(c2ccc(-c3ccnc4[nH]ccc34)cc2)CCC12Cc1ccccc1CN2` (centres unmarked) [Example 49, 1′-(4-(1H-pyrrolo[2,3-b]pyridin-4-yl)phenyl)-1,4-dihydro-2H-spiro[isoquinoline-3,3′-pyrrolidin]-2′-one], the half-inhibitory concentration (IC50) lay in the range of 3 to 30 nM.

For `O=C1N(c2ccc(-c3cn[nH]c3)cc2)CCC12CCc1ccccc1O2` (centres unmarked) [Example 50, 1′-(4-(1H-pyrazol-4-yl)phenyl)spiro[chromane-2,3′-pyrrolidin]-2′-one], the IC50 lay in the range of 30 to 300 nM.

In turn, `CC1(C)c2ccccc2NC12CCN(c1ccc(-c3cn[nH]c3)cc1)C2=O` (centres unmarked) [Example 51, 1′-(4-(1H-pyrazol-4-yl)phenyl)-3,3-dimethylspiro[indoline-2,3′-pyrrolidin]-2′-one] yielded a half-inhibitory concentration (IC50) of less than 3 nM.
